Results as given in article PMC7226045, “Ensartinib (X-396) Effectively Modulates Pharmacokinetic Resistance Mediated by ABCB1 and ABCG2 Drug Efflux Transporters and CYP3A4 Biotransformation Enzyme” (Cancers, 2020).

Key:
[1] = target: T1, CYP2B6 (Homo sapiens, UniProt P20813); assay: Vivid CYP screening kit, recombinant CYP2B6; assay type: biochemical; settings: recombinant enzyme
T1 construct: purchased Thermo Fisher Scientific; host or cells: insect microsomal fractions
Method: CYP inhibitory assay was performed as described previously. Experiments were performed with commercial Vivid CYP screening kits containing insect microsomal fractions enriched with a specific human CYP isoform, human CYP reductase, and in some cases, human cytochrome b5. The potential inhibitory activity of ensartinib toward CYP1A2, CYP2B6, CYP2C8, CYP2C9, CYP2C19, CYP2D6, CYP3A4, and CYP3A5 (i.e., all CYP isoforms that drug regulatory authorities recommend for testing of inhibition by new molecular entities) was then examined. Experiments were performed using a kinetic mode in black 96-well plates according to the manufacturer´s instructions. Briefly, 5-point serial dilutions of ensartinib or the model inhibitor recommended by the manufacturer in buffer were transferred into the wells, then a master mix consisting of a CYP isoenzyme with an NADPH regeneration system in buffer was added. After a 10 min pre-incubation, the reaction was initiated by adding a mixture of NADP^+ and the appropriate Vivid substrate, after which fluorescence was measured at 1 min intervals for 60 min using an Infinite M200 Pro microplate reader (Tecan, Männedorf, Switzerland). The enzyme concentration and incubation interval used for data evaluation (15 min) placed the systems within the linear regions of the appropriate reaction velocity curves. […]

[2] = MTT proliferation assay, A431-ABCG2; assay type: cell-based; settings: human, A431-ABCG2 cells, read-out: IC50, sensitivity to ensartinib
Method: MTT proliferation assay was performed as described previously.

[3] = target: T2, ABCG2 (Homo sapiens, UniProt Q9UNQ0); assay: MDCKII monolayer transport assay, MDCKII-ABCG2; assay type: in vitro ADME; settings: dog, 1 µM ensartinib, read-out: transport ratio (r), BA/AB
T2 construct: expressed in transfected cells; host or cells: MDCKII-ABCG2 (from Dr. Alfred Schinkel, The Netherlands Cancer Institute)
T2 sequence (Q9UNQ0 1-655): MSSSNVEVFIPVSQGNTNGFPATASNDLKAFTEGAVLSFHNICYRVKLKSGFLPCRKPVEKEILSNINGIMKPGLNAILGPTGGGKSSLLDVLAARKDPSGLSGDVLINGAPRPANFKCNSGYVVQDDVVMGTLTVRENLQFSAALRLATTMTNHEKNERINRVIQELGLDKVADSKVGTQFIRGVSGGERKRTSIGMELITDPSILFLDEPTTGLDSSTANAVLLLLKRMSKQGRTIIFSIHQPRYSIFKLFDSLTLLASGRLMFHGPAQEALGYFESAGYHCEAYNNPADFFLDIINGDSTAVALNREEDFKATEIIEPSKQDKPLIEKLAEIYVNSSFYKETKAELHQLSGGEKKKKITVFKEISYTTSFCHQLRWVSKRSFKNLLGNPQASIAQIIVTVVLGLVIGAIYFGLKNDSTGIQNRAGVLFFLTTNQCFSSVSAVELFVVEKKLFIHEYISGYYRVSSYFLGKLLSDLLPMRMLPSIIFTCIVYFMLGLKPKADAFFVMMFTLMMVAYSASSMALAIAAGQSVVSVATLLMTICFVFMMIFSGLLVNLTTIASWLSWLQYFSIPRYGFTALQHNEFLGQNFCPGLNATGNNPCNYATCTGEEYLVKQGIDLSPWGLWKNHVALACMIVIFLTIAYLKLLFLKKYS
Method: Transport assays were performed on microporous polycarbonate membrane filters (3 µm pore size, 24 mm diameter, Transwell 3414; Costar, Corning, NY, USA) using MDCKII parental as well as ABCB1-, ABCG2-, and ABCC1-overexpressing MDCKII cells. The cells were seeded at a density of 1.5 × 10^6 cells per insert and cultured to full confluence for 7 days with media exchanges on the second and fourth days. Before the start of the transport experiments, inserts were washed with 1 × PBS on both the apical and basal sides. The cells were then preincubated in Opti-MEM with or without model inhibitors (1 µM LY335979, 1 µM Ko143, or 25 µM MK-571). […] Ensartinib levels in samples were measured by UHPLC-MS/MS (see below). […]
Samples from the monolayer transport assays (10 µL) were mixed with 100 µL of acetonitrile and 100 µL of methanol, vortexed for 15 min, and centrifuged at 14,500 rpm for 3 min. […] The MS source parameters were set to the following: drying gas, 320 °C, flow rate 10 l/min; sheath gas, 400 °C at 12 l/min; nebulizer pressure 25 psi; capillary voltage 4000 V; nozzle voltage 0 V. Transitions of [M+H]^+ ions were detected using a dwell time of 150 ms, a cell acceleration of 4 V, and fragmentor voltages of 137 V for 547→357, 257 and 120 transitions (corresponding to collision energies of 16, 32, and 56 V).

T1 sequence (P20813 whole entry): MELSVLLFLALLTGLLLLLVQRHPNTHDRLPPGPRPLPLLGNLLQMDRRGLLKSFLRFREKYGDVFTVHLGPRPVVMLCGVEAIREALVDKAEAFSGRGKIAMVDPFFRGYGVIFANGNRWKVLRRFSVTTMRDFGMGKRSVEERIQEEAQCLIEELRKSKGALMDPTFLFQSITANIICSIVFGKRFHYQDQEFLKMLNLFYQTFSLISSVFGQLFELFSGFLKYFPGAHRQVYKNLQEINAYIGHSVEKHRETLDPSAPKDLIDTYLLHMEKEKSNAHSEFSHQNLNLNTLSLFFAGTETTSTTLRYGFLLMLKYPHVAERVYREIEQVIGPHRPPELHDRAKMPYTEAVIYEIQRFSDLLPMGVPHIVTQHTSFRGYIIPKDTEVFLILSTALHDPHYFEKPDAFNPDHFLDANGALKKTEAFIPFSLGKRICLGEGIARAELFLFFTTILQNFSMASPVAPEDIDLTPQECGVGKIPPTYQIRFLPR

## C[C@@H]1CN(C(=O)c2ccc(NC(=O)c3cc(O[C@H](C)c4c(Cl)ccc(F)c4Cl)c(N)nn3)cc2)C[C@H](C)N1 [ensartinib, Ensartinib]
[1]
  inhibitory effect on CYP2B6 (in words): no appreciable inhibitory effect
[1]; 15 min incubation, absolute IC50, read-out: CYP2B6 inhibition IC50
  IC50: > 50 µM
[2]
  IC50 at 48 h: 2.26 µM
[3]
  efflux ratio at 4 h, 1 µM: 1.15
